Results from US10688032B2, “Emulsions having UV sunscreen factors and carnosines” (Symrise AG, priority 2015, dated 2020).

What was measured:
human fibroblasts [1] = test: DNA content of human fibroblasts (Desaulniers method); assay type: cell-based; settings: conc. 0.001 % w/v, compared to blank sample = 100
Description: G6PDH activity was determined in vitro on human fibroblasts by the enzymatic method of Okada, while the DNA content was determined by the Desaulniers method. The results of 3 series of measurements with triple determination are given in %-rel. compared to a blank sample.

type I collagen = test: Inhibition of the glycation of collagen (Schiff's bases, fluorescence at 430 nm); assay type: biochemical; settings: with glucose, 21 days at 45° C.; control with glucose 100, control without glucose 46
Description: The suspensions were then centrifuged and the content of Schiff's bases in the supernatant liquid was determined by fluorescence measurement at 430 nm. The results are again based on the control as standards (without extract and without glucose).

human fibroblasts [2] = test: Stimulation of the synthesis of dermal macromolecules (GAG) in collagen gel containing human fibroblasts; assay type: cell-based; settings: 0.5% by weight FCS + 0.01% by weight substance; for Area 7 days / Area 14 days / Density 14 days: collagen gel; for Density 14 days: relative density 0=clear or white, 1=black; for GAG content 7 days / GAG content 14 days: relative value of the gray stage (0=white to 255=black), perifibroblast area
Description: The measuring method is based on staining macromolecules in a culture of human fibroblasts which, with type I collagen, forms a collagen gel or collagen lattice fibers. Certain regions of those fibers are quantified by means of staining reagents for the proportion of the mentioned macromolecules.
For that purpose, a suspension of human fibroblasts was mixed with a solution of type I collagen (1-2 mg/ml). This mixture was incubated in a defined nutrient medium (DMEM=Dulbecco minimum essential medium, Life Technologie Sarl) comprising 0.5 or 2% by weight fetal calf serum (FCS) for 14 days at 37° C. in a 5% CO2 atmosphere in Petri dishes (5 ml per dish) with the addition of different concentrations of the plant extracts to be tested.
The kinetics of the collagen gel […] was determined 2 to 3 times per week by measuring two perpendicular diameters on each collagen gel using a microscope with an image analysis system. The size of the area is shown in cm^2 in Table 8. After incubation for 14 days, the density of the collagen gel was determined by image analysis with a light source of visible light, by comparatively analyzing different gray stages. This is a relative determination of the density (0=clear or white and 1=black), which cannot be given a unit.
After an incubation period of 7 and 14 days, biopsies (tissue samples) were taken and histological sections of the collagen gel containing human fibroblasts were obtained. The synthesis of macromolecules was analyzed and quantified by the staining of glycosaminoglycan with PAS Alcian blue, for example from SIGMA, by the periodic acid-Schiff method (PAS) described in: Mowry R W, Anal. NY Adad. Sci. 106 Art 2, 402, 1963. The stimulation of the synthesis of macromolecules was evaluated in the immediate vicinity of fibroblasts. This zone is also referred to as the “perifibroblast area”.
The “perifibroblast” secretion, or the secretion of fibroblasts into the periphery, was quantified by an image analyzer by means of a microscope. Reactive structures in the “perifibroblast area” were detected, and the different gray stages were comparatively determined. The values of the gray stages were thereby subdivided from 0=white to 255=black. These parameters are directly proportional to the intensity of the synthesis of macromolecules and thus to the GAG content of the fibroblasts.
The results of the values of these parameters are shown in Table 3 below and are to be regarded directly as representative values for the synthesis activity of the fibroblasts. The content of GAGs is described as a relative value of the gray stage.

pancreas elastase = pancreas elastase (Sus scrofa, UniProt P00772); test: Inhibition of elastase activity; assay type: biochemical; settings: 0.3% by weight; 30 minutes at room temperature; relative to control = 0%
Description: In order to determine the effectiveness of the plant extract in inhibiting the release of elastase, pancreas elastase (a serine protease) was studied and, as substrate, elastin was labeled with a chromogenic synthetic substrate. The system was incubated with the active ingredients for 30 minutes at room temperature and then, after centrifugation, the optical density of the dye at 410 nm was determined. The amount of extracts used was 0.3% by weight. The results are given relative to a control as standard (=0%); a1-antitrypsin was used as the standard.

[3] = test system: glucose-6-phosphate dehydrogenase (G6PDH); test: G6PDH activity on human fibroblasts (enzymatic method of Okada); assay type: cell-based; settings: for G6PDH after 3 d / G6PDH after 6 d: conc. 0.001 % w/v, compared to blank sample = 100
Text: The enzyme glucose-6-phosphate dehydrogenase (G6PDH) catalyzes the first step of the so-called “pentose pathway”, in which an important DNA component, namely deoxyribose, is formed. Glucose 6-phosphate (G6P) is thereby converted into 6-phosphogluconate (6PG) by means of G6PDH. At the same time, the coenzyme NADP required thereby is reduced to NADPH2, which in turn is able to catalyze a large number of other biological reactions such as, for example, the recycling of glutathione or lipid synthesis. Reduced glutathione protects many enzymes which have SH groups and cells against oxidative stress, such as, for example, the action of UV. The G6PDH content is thus an important parameter for cell protection and skin renewal. G6PDH activity was determined in vitro on human fibroblasts by the enzymatic method of Okada, while the DNA content was determined by the Desaulniers method. The results of 3 series of measurements with triple determination are given in %-rel. compared to a blank sample.

[4] = test system: human fibroblasts and human keratinocytes; test: Inhibition of apoptosis induced by a deficiency of growth factors (cell count, BrdU ELISA of cytoplasmic DNA fragments); assay type: cell-based; settings: for Content of DNA fragments / Cell count: conc. 0.001 % w/v; for Content of DNA fragments: BrdU in cytoplasmic DNA fragments, based on a million cells, control = 100; for Cell count: medium without fetal calf serum, in comparison to the control = 100
Description: The ability of carnosines to prevent apoptosis induced by a deficiency of growth factors in human skin cells was studied. These tests were carried out in vitro on human fibroblasts and human keratinocytes. The human cells were cultivated in a nutrient medium (DMEM=Dulbecco minimum essential medium from Life Technologie Sarl) with 10% fetal calf serum (from Dutcher). Bromodeoxyuridine (BrdU) was added to the nutrient medium; it was incorporated into the DNA and later served for detection of the DNA fragments in the cytoplasm. After an incubation period of two days, the nutrient medium was replaced by nutrient medium (DMEM) without fetal calf serum. The active substance to be tested was added. For comparison, a cell sample without active substance to be tested was incubated.
After a further incubation period of one or two days at 37° C., the cells were recovered by trypsinization according to the method of Dunnebacke and Zitcer described in: Cell and tissue culture, Ed.: J. Paul, Churchill Livingstone, 1975, p. 226. After the trypsinization, the cells were centrifuged and counted. Then the content of BrdU in the DNA fragments from the cytoplasm was determined by means of the ELISA test (ELISA kit from Roche). The content of BrdU is a measure of the DNA fragments which have passed from the nucleus, the cell core, into the cytoplasm. The results were based on a million cells and given in percent in comparison to the control.

[5] = Membran & Cell Biol. 12(1), p. 89-99 (1998); cited from earlier work
[6] = Biochem. J. 264(3), p. 863-869 (1989); cited from earlier work

Sequence of pancreas elastase (P00772 27-266): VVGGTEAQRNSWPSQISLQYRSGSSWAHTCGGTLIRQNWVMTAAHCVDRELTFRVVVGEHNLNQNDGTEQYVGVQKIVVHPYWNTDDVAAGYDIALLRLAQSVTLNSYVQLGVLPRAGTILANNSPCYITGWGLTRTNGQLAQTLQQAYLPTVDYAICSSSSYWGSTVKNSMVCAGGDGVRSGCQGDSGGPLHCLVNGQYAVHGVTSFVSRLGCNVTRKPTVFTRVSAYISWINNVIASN

| Compound | DNA after 3 d (human fibroblasts [1]) | DNA after 6 d (human fibroblasts [1]) | Inhibition of the glycation of collagen (type I collagen) | Area 7 days (human fibroblasts [2]) | Area 14 days (human fibroblasts [2]) | Density 14 days (human fibroblasts [2]) | GAG content 7 days (human fibroblasts [2]) | GAG content 14 days (human fibroblasts [2]) | Elastase inhibition (pancreas elastase) | G6PDH after 3 d [3] | G6PDH after 6 d [3] | Content of DNA fragments [4] | Cell count [4] | capture of alpha-beta-unsaturated aldehydes [5] | capture of ROS [6] | G6PDH activity (in words) [3] | apoptosis and content of free DNA fragments in the cytoplasm (in words) ([4]; human cell cultures) |
| --- | --- | --- | --- | --- | --- | --- | --- | --- | --- | --- | --- | --- | --- | --- | --- | --- | --- |
| C[N+](C)(C)C[C@H](O)CC(=O)O.[Cl-] [Carnitine*HCl] | 106 %-rel. | 118 %-rel. | 65% | 9.9 cm2 | 5.8 cm2 | 0.25 | 11.8 | 13.3 | 28% | 104 %-rel. | 109 %-rel. | 88% | 118% | – | – | – | – |
| NCCC(=O)N[C@@H](Cc1cnc[nH]1)C(=O)O [L-Carnosine] | 111 %-rel. | 120 %-rel. | 68% | 10.1 cm2 | 6.0 cm2 | 0.25 | 12.1 | 15.1 | 32% | 105 %-rel. | 109 %-rel. | 85% | 129% | – | – | – | – |
| CCCCC(CC)COC(=O)C(C#N)=C(c1ccccc1)c1ccccc1 (centres unmarked) [Octocrinyl, reference compound] | 95 %-rel. | 90 %-rel. | – | – | – | – | – | – | – | 89 %-rel. | 85 %-rel. | – | – | – | – | – | – |
| CCCCCCOC(=O)c1ccccc1C(=O)c1ccc(N(CC)CC)cc1O [Uvinul A, 2-(4-diethylamino-2-hydroxybenzoyl)-benzoic acid hexyl ester, reference compound] | 97 %-rel. | 93 %-rel. | – | – | – | – | – | – | – | 88 %-rel. | 81 %-rel. | – | – | – | – | – | – |
| NCCC(=O)N[C@@H](Cc1cnc[nH]1)C(=O)O [carnosine] | – | – | – | – | – | – | – | – | – | – | – | – | – | able to capture alpha-beta-unsaturated aldehydes | capable of capturing ROS | increases the activity of G6PDH production | counteracts apoptosis |
